# Results reported in patent US20220388990A1, “INHIBITORS OF CYCLIN-DEPENDENT KINASES” (Kinnate Biopharma Inc., priority 2019, published 2022).
# Structures can show the parent of a compound that is named as a salt.
# Target: T1, CDK12 (Homo sapiens, UniProt Q9NYV4)
# T1 construct: ProQinase (named as the party running the assay)
# Experiment: Radiometric protein kinase assay (33PanQinase), assay condition 1, thiol-free conditions
# Format: biochemical
# Settings: thiol-free conditions (1 mM TCEP), ATP at apparent Km
# Method: Example 2 —Assay condition 1 (thiol-free conditions)
# The IC50 profile of compounds was determined using protein kinase in a customized, thiol free assay. IC50 values were measured by testing 10 concentrations (1×10^−05 M to 3×10^−10 M) of each test compound in singlicate against each kinase of interest. Prior to testing, the 1×10^−03M stock solutions in column 2 of the master plates were subjected to a serial, semi-logarithmic dilution using 100% DMSO as a solvent. […] Column 1 and 7 were filled with 100% DMSO as controls. Subsequently, 2×10 microliter from each well of the serial diluted copy plates were aliquoted with a 96 channel pipettor into two identical sets of “compound dilution plates”. All plates were barcoded for automated identification and tracking purposes. IC50 values were measured by testing 10 concentrations (1×10^−05 M to 3×10^−10 M) of each compound in singlicate. All compounds were stored as powder until being solubilized in DMSO. Solubilized compounds were stored as 1×10^−02 M/100% DMSO stock solutions. Prior to the assay process, 90 microliters of H2O were added to each well of a set of compound dilution plates. To minimize potential precipitation, the H2O was added to each plate only a few minutes before the transfer of the compound solutions into the assay plates. Each plate was shaken thoroughly, resulting in compound dilution plates with a final of 10% DMSO. For each assay, 5 microliters of solution from each well of the compound dilution plates/10% DMSO were transferred into the assay plate. The final volume of the assay was 50 μl. All compounds were tested at 10 final assay concentrations in the range from 1×10^−05 M to 3×10^−10 M, in singlicate. The final DMSO concentration in the reaction cocktails was 1% in all cases. A radiometric protein kinase assay (33PanQinase® Activity Assay) was used for measuring the kinase activity of the protein kinase. All kinase assays were performed in 96-well FlashPlates™ from PerkinElmer (Boston, Mass., USA) in a 50 microliter reaction volume. The reaction cocktail was pipetted in four steps in the following order: 20 microliter of assay buffer (standard buffer) 5 microliter of ATP solution (in H2O) 5 microliter of test compound (in 10% DMSO) 20 microliter enzyme/subtrate mix. Each assay for the protein kinase contained 70 mM HEPES-NaOH pH 7.5, 3 mM MgCl2, 3 mM MnCl2, 3 microM Na-orthovanadate, 1 mM TCEP, 50 μg/ml PEG20000, ATP (corresponding to the apparent ATP-Km of the kinase, see Table A), [gamma-33P]-ATP (approx. 6×10×E5 cpm per well), with the protein kinase and relevant substrate being used in pre-determined amounts, depending on the kinase in question. For all experiments labeled as “Thiol-free”, all glutathione was exchanged from protein preparations so as to be removed from the assay and final buffer conditions contained no thiol- containing reagents. This was done so there would be no interference with the key cysteines in the proteins of interest.
# For data analysis, the median value of the counts in column 1 (n=8) of each assay plate was defined as “low control”. This value reflects unspecific binding of radioactivity to the plate in the absence of a protein kinase but in the presence of the substrate. The median value of the counts in column 7 of each assay plate (n=8) was taken as the “high control”, i.e. full activity in the absence of any inhibitor. The difference between high and low control was taken as 100% activity. As part of the data evaluation the low control value from a particular plate was subtracted from the high control value as well as from all 80 “compound values” of the corresponding plate. The residual activity (in %) for each well of a particular plate was calculated by using the following formula:
# Res. Activity (%)=100×[(cpm of compound−low control)/(high control−low control)] […]
# T1 sequence (Q9NYV4 whole entry): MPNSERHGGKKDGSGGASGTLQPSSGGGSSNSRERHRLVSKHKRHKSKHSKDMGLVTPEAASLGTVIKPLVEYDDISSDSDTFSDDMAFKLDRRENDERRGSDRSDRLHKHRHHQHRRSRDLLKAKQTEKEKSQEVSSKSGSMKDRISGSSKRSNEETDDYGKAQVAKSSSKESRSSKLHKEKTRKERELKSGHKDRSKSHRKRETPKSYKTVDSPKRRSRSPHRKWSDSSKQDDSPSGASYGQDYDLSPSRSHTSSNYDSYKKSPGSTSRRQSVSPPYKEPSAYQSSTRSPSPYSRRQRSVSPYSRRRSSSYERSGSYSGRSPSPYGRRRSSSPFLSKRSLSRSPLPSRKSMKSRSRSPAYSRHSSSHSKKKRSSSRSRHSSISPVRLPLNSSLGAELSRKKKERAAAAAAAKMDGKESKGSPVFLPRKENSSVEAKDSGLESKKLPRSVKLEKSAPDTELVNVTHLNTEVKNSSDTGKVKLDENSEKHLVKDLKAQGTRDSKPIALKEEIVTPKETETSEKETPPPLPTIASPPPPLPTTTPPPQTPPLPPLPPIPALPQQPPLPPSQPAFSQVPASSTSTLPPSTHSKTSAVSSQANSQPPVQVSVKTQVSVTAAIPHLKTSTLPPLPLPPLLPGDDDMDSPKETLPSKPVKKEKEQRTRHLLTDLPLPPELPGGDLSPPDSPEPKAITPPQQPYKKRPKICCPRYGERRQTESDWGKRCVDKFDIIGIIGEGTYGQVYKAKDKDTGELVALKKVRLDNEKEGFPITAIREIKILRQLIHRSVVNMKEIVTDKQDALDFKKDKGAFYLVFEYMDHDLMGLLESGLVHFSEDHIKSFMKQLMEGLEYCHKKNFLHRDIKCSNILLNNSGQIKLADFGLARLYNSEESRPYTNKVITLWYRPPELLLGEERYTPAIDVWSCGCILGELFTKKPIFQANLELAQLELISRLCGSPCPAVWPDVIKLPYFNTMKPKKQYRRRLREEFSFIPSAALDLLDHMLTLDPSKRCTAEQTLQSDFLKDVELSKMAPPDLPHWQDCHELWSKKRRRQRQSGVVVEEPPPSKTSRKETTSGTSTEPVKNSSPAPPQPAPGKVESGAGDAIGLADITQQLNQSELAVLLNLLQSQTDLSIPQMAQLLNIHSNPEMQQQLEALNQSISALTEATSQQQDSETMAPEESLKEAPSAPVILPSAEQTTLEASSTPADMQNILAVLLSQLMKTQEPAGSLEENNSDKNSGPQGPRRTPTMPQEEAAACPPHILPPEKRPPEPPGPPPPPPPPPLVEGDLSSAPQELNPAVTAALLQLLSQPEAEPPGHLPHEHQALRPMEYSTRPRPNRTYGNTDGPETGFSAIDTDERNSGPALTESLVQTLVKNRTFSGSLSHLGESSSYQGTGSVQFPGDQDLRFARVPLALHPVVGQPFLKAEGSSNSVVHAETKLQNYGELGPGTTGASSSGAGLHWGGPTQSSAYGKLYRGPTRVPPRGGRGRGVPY
# T1 sequence (O75909 whole entry partner): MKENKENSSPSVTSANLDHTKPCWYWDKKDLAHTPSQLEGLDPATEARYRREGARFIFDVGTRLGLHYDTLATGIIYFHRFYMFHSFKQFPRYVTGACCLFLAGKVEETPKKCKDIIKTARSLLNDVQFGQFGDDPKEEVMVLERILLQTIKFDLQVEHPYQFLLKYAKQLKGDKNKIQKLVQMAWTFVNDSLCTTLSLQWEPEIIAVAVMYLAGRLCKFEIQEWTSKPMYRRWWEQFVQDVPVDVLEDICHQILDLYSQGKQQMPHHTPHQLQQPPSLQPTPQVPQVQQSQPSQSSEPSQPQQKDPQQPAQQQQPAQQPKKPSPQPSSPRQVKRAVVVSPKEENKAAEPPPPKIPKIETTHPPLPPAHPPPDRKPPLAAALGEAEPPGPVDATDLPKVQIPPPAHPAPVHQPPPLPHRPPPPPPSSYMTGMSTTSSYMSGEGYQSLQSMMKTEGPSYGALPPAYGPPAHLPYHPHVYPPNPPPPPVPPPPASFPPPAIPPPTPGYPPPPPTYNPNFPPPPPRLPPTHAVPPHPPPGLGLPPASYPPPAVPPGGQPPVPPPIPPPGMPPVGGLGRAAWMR
row,SMILES,IC50 [nM]
1,"C=CC(=O)Nc1ccc2c(N3CC[C@@H](Nc4ncc(C5CC5)cn4)C3)ncnc2c1 [Example 10, (R)-N-(4-(3-((5-cyclopropylpyrimidin-2-yl)amino)pyrrolidin-1-yl)quinazolin-7-yl)acrylamide]",≤ 100
2,"C=CC(=O)Nc1ccc2c(N3CC[C@@H](Nc4ncc(Br)cn4)C3)nnc(N3CCC3)c2c1 [Example 52, (R)—N-(4-(azetidin-1-yl)-1-(3-((5-bromopyrimidin-2-yl)amino)pyrrolidin-1-yl)phthalazin-6-yl)acrylamide]",≤ 100
3,"C=CC(=O)Nc1ccc2c(N3CC[C@@H](Nc4ncc(Cl)c(OC)n4)C3)ncnc2c1 [Example 4, (R)-N-(4-(3-((5-chloro-4-methoxypyrimidin-2-yl)amino)pyrrolidin-1-yl)quinazolin-7-yl)acrylamide]",≤ 100
4,"C#Cc1cnc(N[C@@H]2CCN(c3nccc4cc(NC(=O)C=C)ccc34)C2)nc1 [Example 48, (R)—N-(1-(3-((5-ethynylpyrimidin-2-yl)amino)pyrrolidin-1-yl)isoquinolin-6-yl)acrylamide]",≤ 100
5,"C=CC(=O)Nc1ccc2c(N3CC[C@@H](Nc4ncc(Br)cn4)C3)nc(C)nc2c1 [Example 21, (R)-N-(4-(3-((5-bromopyrimidin-2-yl)amino)pyrrolidin-1-yl)-2-methylquinazolin-7-yl)acrylamide]",≤ 100
6,"C=CC(=O)Nc1ccc2c(N3CC[C@@H](Nc4ncc(C#N)cn4)C3)nc(N3CCN(C)CC3)nc2c1 [Example 24, (R)-N-(4-(3-((5-cyanopyrimidin-2-yl)amino)pyrrolidin-1-yl)-2-(4-methylpiperazin-1-yl)quinazolin-7-yl)acrylamide]",≤ 100
7,"C=CC(=O)Nc1ccc2c(N3CC[C@@H](Nc4ncc(Cl)cn4)C3)ncnc2c1 [Example 1, (R)-N-(4-(3-((5-chloropyrimidin-2-yl)amino)pyrrolidin-1-yl)quinazolin-7-yl)acrylamide]",100 to 1000
8,"C=CC(=O)Nc1ccc2c(N3CC[C@@H](Nc4ncc5cc(F)ccc5n4)C3)ncnc2c1 [Example 8, (R)-N-(4-(3-((6-fluoroquinazolin-2-yl)amino)pyrrolidin-1-yl)quinazolin-7-yl)acrylamide]",≤ 100
9,"C=CC(=O)Nc1ccc2c(N3CC[C@@H](Nc4ncc(Cl)c(C(F)(F)F)n4)C3)ncnc2c1 [Example 9, (R)-N-(4-(3-((5-chloro-4-(trifluoromethyl)pyrimidin-2-yl)amino)pyrrolidin-1-yl)quinazolin-7-yl)acrylamide]",≤ 100
10,"C#Cc1cnc(N[C@@H]2CCN(c3nccc4cc(N(C)C(=O)C=C)ccc34)C2)nc1 [Example 44, (R)—N-(1-(3-((5-ethynylpyrimidin-2-yl)amino)pyrrolidin-1-yl)isoquinolin-6-yl)-N-methylacrylamide]",≤ 100
11,"C=CC(=O)Nc1ccc2c(N3CC[C@@H](Nc4ncc(Cl)c(OCC)n4)C3)ncnc2c1 [Example 3, (R)-N-(4-(3-((5-chloro-4-ethoxypyrimidin-2-yl)amino)pyrrolidin-1-yl)quinazolin-7-yl)acrylamide]",≤ 100
12,"C#Cc1cnc(N[C@@H]2CCN(c3nccc4cc(NC(=O)C=C)ccc34)C2)nn1 [Example 47, (R)—N-(1-(3-((6-ethynyl-1,2,4-triazin-3-yl)amino)pyrrolidin-1-yl)isoquinolin-6-yl)acrylamide]",≤ 100
13,"C#Cc1cnc(N[C@@H]2CCN(c3nncc4cc(NC(=O)C=C)ccc34)C2)nc1 [Example 51, (R)—N-(1-(3-((5-ethynylpyrimidin-2-yl)amino)pyrrolidin-1-yl)phthalazin-6-yl)acrylamide formate]",≤ 100
14,"C=CC(=O)Nc1ccc2c(N3CC[C@@H](Nc4ncc(C(F)(F)F)c(N)n4)C3)ncnc2c1 [Example 6, (R)-N-(4-(3-((4-amino-5-(trifluoromethyl)pyrimidin-2-yl)amino)pyrrolidin-1-yl)quinazolin-7-yl)acrylamide]",≤ 100
15,"C=CC(=O)Nc1ccc2c(N3CC[C@@H](Nc4ncc5sccc5n4)C3)ncnc2c1 [Example 11, (R)-N-(4-(3-(thieno [3,2-d]pyrimidin-2-ylamino)pyrrolidin-1-yl)quinazolin-7-yl)acrylamide]",≤ 100
16,"C=CC(=O)Nc1ccc2c(N3CC[C@@H](Nc4ncc(Br)c(OC)n4)C3)ncnc2c1 [Example 5, (R)-N-(4-(3-((5-bromo-4-methoxypyrimidin-2-yl)amino)pyrrolidin-1-yl)quinazolin-7-yl)acrylamide]",≤ 100
17,"C=CC(=O)Nc1ccc2c(N3CC[C@@H](Nc4ncc5ccncc5n4)C3)ncnc2c1 [Example 16, (R)-N-(4-(3-(pyrido [3,4-d]pyrimidin-2-ylamino)pyrrolidin-1-yl)quinazolin-7-yl)acrylamide]",≤ 100
18,"C=CC(=O)Nc1ccc2c(N3CC[C@@H](Nc4ncc(C#N)cn4)C3)nc(N3CCOCC3)nc2c1 [Example 22, (R)-N-(4-(3-((5-cyanopyrimidin-2-yl)amino)pyrrolidin-1-yl)-2-morpholinoquinazolin-7-yl)acrylamide]",100 to 1000
19,"C=CC(=O)N(C)c1ccc2c(N3CC[C@@H](Nc4ncc(Br)cn4)C3)nccc2c1 [Example 27, (R)-N-(1-(3-((5-bromopyrimidin-2-yl)amino)pyrrolidin-1-yl)isoquinolin-6-yl)-N-methylacrylamide]",≤ 100
20,"C=CC(=O)Nc1ccc2c(N3CC[C@@H](Nc4ncc(Br)cn4)C3)nccc2c1 [Example 18, (R)-N-(1-(3-((5-bromopyrimidin-2-yl)amino)pyrrolidin-1-yl)isoquinolin-6-yl)acrylamide]",≤ 100
21,"C=CC(=O)Nc1ccc2c(N3CC[C@@H](Nc4ncc(Br)cn4)C3)nncc2c1 [Example 50, (R)—N-(1-(3-((5-bromopyrimidin-2-yl)amino)pyrrolidin-1-yl)phthalazin-6-yl)acrylamide]",≤ 100
22,"C=CC(=O)Nc1ccc2c(N3CC[C@@H](Nc4cc5c(cn4)cnn5CC)C3)ncnc2c1 [Example 34, (R)—N-(4-(3-((1-ethyl-1H-pyrazolo[4,3-c]pyridin-6-yl)amino)pyrrolidin-1-yl)quinazolin-7-yl)acrylamide]",≤ 100
23,"C=CC(=O)Nc1ccc2c(N3CC[C@@H](Nc4ncc(C#N)cn4)C3)nncc2c1 [Example 49, (R)—N-(1-(3-((5-cyanopyrimidin-2-yl)amino)pyrrolidin-1-yl)phthalazin-6-yl)acrylamide]",≤ 100
24,"C=CC(=O)Nc1ccc2c(N3CC[C@@H](Nc4ncc(C#N)cn4)C3)nnc(N3CC(C#N)C3)c2c1 [Example 54, (R)—N-(4-(3-cyanoazetidin-1-yl)-1-(3-((5-cyanopyrimidin-2-yl)amino)pyrrolidin-1-yl)phthalazin-6-yl)acrylamide]",≤ 100
25,"C=CC(=O)Nc1ccc2c(N3CC[C@@H](Nc4ncc5ccccc5n4)C3)ncnc2c1 [Example 13, (R)-N-(4-(3-(quinazolin-2-ylamino)pyrrolidin-1-yl)quinazolin-7-yl)acrylamide]",≤ 100
26,"C=CC(=O)Nc1ccc2c(N3CC[C@@H](Nc4ncc(C#N)cn4)C3)nc(N)nc2c1 [Example 31, (R)—N-(2-amino-4-(3-((5-cyanopyrimidin-2-yl)amino)pyrrolidin-1-yl)quinazolin-7-yl)acrylamide]",≤ 100
27,"C=CC(=O)Nc1ccc2c(N3CC[C@@H](Nc4ncc(C#N)cn4)C3)nnc(N3CCC3)c2c1 [Example 45, (R)—N-(4-(azetidin-1-yl)-1-(3-((5-cyanopyrimidin-2-yl)amino)pyrrolidin-1-yl)phthalazin-6-yl)acrylamide formate]",≤ 100
28,"C=CC(=O)N(C)c1ccc2c(N3CC[C@@H](Nc4ncc(Br)cn4)C3)nc(N3CCN(C)CC3)nc2c1 [Example 43, (R)—N-(4-(3-((5-bromopyrimidin-2-yl)amino)pyrrolidin-1-yl)-2-(4-methylpiperazin-1-yl)quinazolin-7-yl)-N-methylacrylamide]",≤ 100
